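Protocol summary: plate cells (96-well), add compound at 5 concentrations, incubate 48 h, interpolate endpoints linearly. GI50 is the concentration that inhibits growth by half. The concentration for full growth arrest is given as TGI.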

Among the test systems are UO-31 renal; A498 renal; COLO 205 colon; M14 melanoma; LOX IMVI melanoma; SK-OV-3 ovarian; OVCAR-8 ovarian; NCI-H23 lung; UACC-257 melanoma; HCC-2998 colon.
What all share (assay): NCI-60 cell line screen, 48 h

Consider `COc1cc(/C=C/C(=O)c2cccc(Nc3nc(Nc4ccccc4)nc(Nc4ccccc4)n3)c2)cc(OC)c1OC`, for which the GI50 in the experiment with UO-31 renal was 5.15 µM; in the experiment with A498 renal, 7.47 µM; with COLO 205 colon, 4.77 µM; in the experiment with M14 melanoma, 24.1 µM; with LOX IMVI melanoma, 6.32 µM; in the experiment on SK-OV-3 ovarian it was 43.1 µM. In addition, the GI50 in the experiment with OVCAR-8 ovarian is 0.988 µM; in the experiment on NCI-H23 lung, 6.07 µM; in the experiment on UACC-257 melanoma, 25 µM; in the experiment on HCC-2998 colon, 5.5 µM. For the same compound, the TGI is over 100 µM in the experiment on UO-31 renal; over 49.9 µM in the experiment on A498 renal; 30.7 µM with COLO 205 colon; over 100 µM in the experiment on M14 melanoma; over 45.1 µM with LOX IMVI melanoma; over 100 µM in the experiment with SK-OV-3 ovarian. For the same compound, the TGI in the experiment on OVCAR-8 ovarian was over 100 µM; with NCI-H23 lung, over 100 µM; in the experiment with UACC-257 melanoma, over 100 µM; in the experiment with HCC-2998 colon, 53.1 µM.

`O=C([CH-]C(=O)c1ccccc1)c1ccccc1.O=C([CH-]C(=O)c1ccccc1)c1ccccc1.[La+3].[OH-].[OH3+]`: the GI50 with UO-31 renal was 6.62 µM; in the experiment with A498 renal, 17.9 µM; with COLO 205 colon, 22.6 µM; with M14 melanoma, 16.8 µM; in the experiment on LOX IMVI melanoma it was 13.5 µM; in the experiment with SK-OV-3 ovarian, 21.3 µM. The GI50 with OVCAR-8 ovarian was 6.67 µM; in the experiment with NCI-H23 lung, 12.2 µM; in the experiment on UACC-257 melanoma, 16.3 µM; in the experiment with HCC-2998 colon, 16.1 µM. For the same compound, the TGI was determined as 31.6 µM in the experiment on UO-31 renal; 87.7 µM in the experiment on A498 renal; 61.5 µM in the experiment with COLO 205 colon; 37.6 µM in the experiment on M14 melanoma; 37.1 µM in the experiment with LOX IMVI melanoma; 69.8 µM with SK-OV-3 ovarian. Further, the TGI with OVCAR-8 ovarian is 65.4 µM; in the experiment with NCI-H23 lung it was 48.6 µM; in the experiment with UACC-257 melanoma, 46.5 µM; in the experiment on HCC-2998 colon, 48.1 µM.

On to `Cc1nn2c(/C=C3\C(=O)Nc4ccc(Cl)cc43)c(C)nc2s1`, for which the GI50 is 34.6 µM in the experiment on UO-31 renal; 46 µM with A498 renal; 13.3 µM in the experiment with COLO 205 colon; 23.2 µM in the experiment on M14 melanoma; 83.1 µM in the experiment on LOX IMVI melanoma; 49.8 µM with SK-OV-3 ovarian. Also, the GI50 in the experiment with OVCAR-8 ovarian is 84.3 µM; in the experiment with NCI-H23 lung, 77.1 µM; in the experiment on UACC-257 melanoma, over 100 µM; in the experiment on HCC-2998 colon, 26.2 µM. Further, the TGI in the experiment on UO-31 renal, in the experiment with A498 renal, in the experiment with COLO 205 colon, in the experiment with M14 melanoma, in the experiment with LOX IMVI melanoma and with SK-OV-3 ovarian was over 100 µM each time. The TGI in the experiment on OVCAR-8 ovarian, in the experiment with NCI-H23 lung, in the experiment on UACC-257 melanoma and with HCC-2998 colon was over 100 µM in each case.

With `C=C1C(=O)O[C@H]2[C@H]1CC/C(COC(=O)NCc1ccc(Cn3c(=O)sn(CCCl)c3=O)cc1)=C\CC[C@@]1(C)O[C@@H]21`, the GI50 with UO-31 renal is 1.65 µM; in the experiment with A498 renal, 11.5 µM; in the experiment on COLO 205 colon, 1.84 µM; in the experiment on M14 melanoma, 1.82 µM; with LOX IMVI melanoma it was 1.69 µM; in the experiment on SK-OV-3 ovarian it was 16.1 µM. Besides, the GI50 in the experiment with OVCAR-8 ovarian is 2.04 µM; in the experiment on NCI-H23 lung it was 2.18 µM; in the experiment with UACC-257 melanoma it was 1.85 µM; in the experiment on HCC-2998 colon, 17.3 µM. Also, the TGI with UO-31 renal was 3.25 µM; in the experiment on A498 renal, 23.8 µM; in the experiment on COLO 205 colon it was 3.6 µM; with M14 melanoma, 3.65 µM; in the experiment with LOX IMVI melanoma, 3.12 µM; with SK-OV-3 ovarian it was 29.7 µM. Moreover, the TGI in the experiment on OVCAR-8 ovarian was found to be 4.81 µM; in the experiment on NCI-H23 lung, 5.2 µM; in the experiment with UACC-257 melanoma, 4.98 µM; in the experiment on HCC-2998 colon it was 33 µM.

In the case of `CCOc1ccccc1N1C(=O)C(=O)C(c2nc3ccccc3o2)C(=O)C1=O`, the TGI in the experiment on UO-31 renal, in the experiment with A498 renal, with COLO 205 colon, in the experiment with M14 melanoma, in the experiment on LOX IMVI melanoma and in the experiment with SK-OV-3 ovarian was over 100 µM in each case. For the same compound, the TGI in the experiment with OVCAR-8 ovarian, in the experiment with NCI-H23 lung, in the experiment with UACC-257 melanoma and with HCC-2998 colon was over 100 µM throughout.

For the compound `CCOC(=O)N1CCN(C=S)CC1`, the TGI in the experiment with UO-31 renal, in the experiment on A498 renal, with COLO 205 colon, in the experiment with M14 melanoma, in the experiment on LOX IMVI melanoma and in the experiment with SK-OV-3 ovarian was over 100 µM in each case. Also, the TGI in the experiment on OVCAR-8 ovarian, in the experiment on NCI-H23 lung, with UACC-257 melanoma and with HCC-2998 colon was over 100 µM throughout.

As for `C=C(C)C(=O)O[C@H]1CC(=C)[C@@H]2C[C@H](O)[C@](O)(CCl)[C@@H]2[C@H]2OC(=O)C(=C)[C@@H]21`, the GI50 in the experiment on UO-31 renal was 2.73 µM; in the experiment on A498 renal, 12.8 µM; with COLO 205 colon, 1.87 µM; in the experiment with M14 melanoma, 2.78 µM; in the experiment on LOX IMVI melanoma, 1.8 µM; in the experiment with SK-OV-3 ovarian it was 16.2 µM. For the same compound, the GI50 was 3.24 µM in the experiment with OVCAR-8 ovarian, 11.6 µM in the experiment on NCI-H23 lung, 3.65 µM in the experiment on UACC-257 melanoma and 17.6 µM with HCC-2998 colon. For the same compound, the TGI in the experiment with UO-31 renal worked out at 9.27 µM; with A498 renal it was 26.7 µM; in the experiment with COLO 205 colon it was 3.66 µM; in the experiment with M14 melanoma it was 6.88 µM; with LOX IMVI melanoma, 3.39 µM; with SK-OV-3 ovarian, 30.2 µM. In addition, the TGI in the experiment with OVCAR-8 ovarian was 12.8 µM; in the experiment on NCI-H23 lung it was 25.7 µM; in the experiment with UACC-257 melanoma it was 13.5 µM; in the experiment on HCC-2998 colon, 32.4 µM.

As for `Cc1cccc(C)c1NC(=O)C(C#N)C1=C(Cl)C(=O)c2ccccc2C1=O` (centres undefined), the TGI is 26.6 µM in the experiment on UO-31 renal; 29.3 µM in the experiment with A498 renal; 10.2 µM in the experiment on COLO 205 colon; 21.4 µM with M14 melanoma; 43.8 µM in the experiment on LOX IMVI melanoma; 43.3 µM in the experiment with SK-OV-3 ovarian. Besides, the TGI in the experiment on OVCAR-8 ovarian was found to be 48.5 µM; in the experiment with NCI-H23 lung, 44 µM; in the experiment with UACC-257 melanoma, 21.6 µM; in the experiment with HCC-2998 colon it was 32.2 µM.

Take `CC(C)(C)n1cc(-c2ccnc(NCCCNS(=O)(=O)c3ccc(C(F)(F)F)cc3)c2)c(-c2cccc(O)c2)n1`: the GI50 was 1.58 µM in the experiment with UO-31 renal; 1.54 µM with A498 renal; 1.95 µM in the experiment with COLO 205 colon; 2 µM in the experiment on M14 melanoma; 1.72 µM with LOX IMVI melanoma; 2.69 µM in the experiment with SK-OV-3 ovarian. Further, the GI50 is 2.46 µM in the experiment on OVCAR-8 ovarian, 1.67 µM in the experiment on NCI-H23 lung, 2.07 µM in the experiment on UACC-257 melanoma and 1.82 µM in the experiment on HCC-2998 colon. In addition, the TGI was determined as 3.06 µM with UO-31 renal; 4.2 µM in the experiment with A498 renal; 3.78 µM with COLO 205 colon; 3.93 µM with M14 melanoma; 3.09 µM with LOX IMVI melanoma; 6.75 µM with SK-OV-3 ovarian. In addition, the TGI in the experiment with OVCAR-8 ovarian was 6.44 µM; in the experiment on NCI-H23 lung, 3.18 µM; with UACC-257 melanoma, 4.6 µM; in the experiment with HCC-2998 colon, 3.25 µM.

On to `COc1ccc2nc3cccc([N+](=O)[O-])c3c(NCCCCCC(=O)O)c2c1`, for which the GI50 in the experiment with UO-31 renal was 0.161 µM; in the experiment with A498 renal, 1.87 µM; in the experiment with M14 melanoma it was 0.015 µM; in the experiment with LOX IMVI melanoma, 0.171 µM; in the experiment with SK-OV-3 ovarian it was 0.915 µM; in the experiment on OVCAR-8 ovarian, 0.0877 µM. Besides, the GI50 with NCI-H23 lung was 0.952 µM; in the experiment on UACC-257 melanoma it was 0.257 µM; in the experiment with HCC-2998 colon, 1.18 µM. For the same compound, the TGI in the experiment with UO-31 renal turned out to be 0.484 µM; in the experiment with A498 renal, 4.28 µM; with COLO 205 colon it was 0.078 µM; with M14 melanoma it was 0.0466 µM; with LOX IMVI melanoma it was 0.487 µM; in the experiment on SK-OV-3 ovarian, 5.41 µM. The TGI with OVCAR-8 ovarian worked out at 2.22 µM; in the experiment on NCI-H23 lung, 4.19 µM; with UACC-257 melanoma it was 0.926 µM; with HCC-2998 colon, 2.5 µM.

Take `CN1C(=Nc2ccccc2)SC1=Nc1ccccc1`: the TGI in the experiment with UO-31 renal, in the experiment with A498 renal, in the experiment with COLO 205 colon, with M14 melanoma, in the experiment with LOX IMVI melanoma and in the experiment with SK-OV-3 ovarian was over 100 µM throughout. Moreover, the TGI with OVCAR-8 ovarian, in the experiment on NCI-H23 lung, in the experiment with UACC-257 melanoma and in the experiment with HCC-2998 colon was over 100 µM throughout.

With `CN(O)c1nc(N(C)O)nc(N2CCOCC2)n1`, the GI50 in the experiment on UO-31 renal is 2.41 µM; in the experiment with A498 renal it was 14.9 µM; with COLO 205 colon, 3.69 µM; in the experiment with M14 melanoma, 2.92 µM; with LOX IMVI melanoma it was 1.67 µM; with SK-OV-3 ovarian it was 12.6 µM. Besides, the GI50 in the experiment on OVCAR-8 ovarian is 3.85 µM; in the experiment on NCI-H23 lung, 12.4 µM; in the experiment on UACC-257 melanoma, 5.57 µM; in the experiment with HCC-2998 colon, 8.75 µM. In addition, the TGI is over 100 µM in the experiment on UO-31 renal; over 100 µM with A498 renal; over 100 µM with COLO 205 colon; 57 µM in the experiment with M14 melanoma; over 100 µM in the experiment on LOX IMVI melanoma; over 100 µM with SK-OV-3 ovarian. For the same compound, the TGI in the experiment on OVCAR-8 ovarian was over 100 µM; in the experiment with NCI-H23 lung it was over 100 µM; in the experiment with UACC-257 melanoma, 92.2 µM; with HCC-2998 colon, over 100 µM.

These data come from PubChem BioAssay (NCI).
